Reference: patent US20230226005A1, “Methods of Treating, Ameliorating, Shortening Duration, and/or Reversing Symptoms and/or Complications of a Coronavirus Infection” (Yale University, priority 2020, published 2023)

Columns and labels:
[1] = test system: COVID-19 infection; experiment: Phase IIa study: nose-family symptom score; format: in vivo
[2] = test system: COVID-19 infection; experiment: Phase IIa study: COVID-19 PRO frequency score; format: in vivo, human
Text: Subjects were enrolled in two cohorts. The treatment cohort consists of subjects receiving camostat mesylate, and the control cohort consists of subjects receiving a placebo. […] The control cohort received a placebo four times daily for seven days.
Subjects self-administered Likert-type symptom score evaluations daily from days 0-14, wherein subjects provided a ranking (i.e., 0—not at all, 1—a little bit, 2—somewhat, 3—quite a bit, and 4—very much) in response to various symptoms (e.g., nose, throat, eyes, chest/respiratory, gastrointestinal, body/systemic, and smell/taste symptoms) (Table 1).
The COVID-19 PRO daily self-score tool consists of 39 items that are answered daily by the subject. Items 1-33 are Likert-scale questions (e.g., rated 0-4), wherein 0=not at all, and 4=very much. These items are summed to score the severity of symptoms, wherein a total score of 132 would indicate the greatest severity of symptoms and a score of 0 would indicate no severity of symptoms.
Additional statistical models were applied to the raw data, which are provided herein (Tables 8-10).

[3] = test system: SARS-CoV-2; conditions: 600 mg po four times daily for up to 14 days; cited from earlier work
[4] = test system: SARS-CoV-2 cellular entry; conditions: in vitro as well as in vivo; cited from earlier work
[5] = test system: COVID-19; conditions: hospitalized COVID-19 patients; 200 mg po three times daily for 5 days; cited from earlier work
[6] = test system: COVID-19 infection; experiment: Phase IIa study: smell/taste-family symptom score; format: in vivo; conditions: for smell/taste-family symptoms, Fitzmaurice mixed effects model, Effect: Camostat vs Placebo
[7] = test system: COVID-19 infection; experiment: Phase IIa study: eye-family symptom score; format: in vivo

In the case of `CN(C)C(=O)COC(=O)Cc1ccc(OC(=O)c2ccc(NC(=N)N)cc2)cc1` [camostat, 4-[[4-[(Aminoiminomethyl)amino]benzoyl]oxy]benzeneacetic acid 2-(dimethylamino)-2-oxoethyl ester], the “nose-family symptom score, Fitzmaurice model, Camostat” value ([1]; day 0) is reported as 7.6 (0.5), the “nose-family symptom score, Fitzmaurice model, Camostat” value ([1]; day 1) is reported as 6.6 (0.6) and the “nose-family symptom score, Fitzmaurice model, Effect (placebo vs camostat)” value ([1]; day 1) is reported as 1.3 (0.7). For the same compound, the “nose-family symptom score, Fitzmaurice model, Camostat” value ([1]; day 2) was 6.6 (0.6), the “nose-family symptom score, Fitzmaurice model, Effect (placebo vs camostat)” value ([1]; day 2) was 0 (0.7) and the “nose-family symptom score, Fitzmaurice model, Camostat” value ([1]; day 3) was 5.7 (0.6). The “nose-family symptom score, Fitzmaurice model, Effect (placebo vs camostat)” value ([1]; day 3) was 0.5 (0.7), the “nose-family symptom score, Fitzmaurice model, Camostat” value ([1]; day 4) was 5.6 (0.6) and the “nose-family symptom score, Fitzmaurice model, Effect (placebo vs camostat)” value ([1]; day 4) was 0 (0.7). For the same compound, the “nose-family symptom score, Fitzmaurice model, Camostat” value ([1]; day 5) was 5.3 (0.6), the “nose-family symptom score, Fitzmaurice model, Effect (placebo vs camostat)” value ([1]; day 5) was 1 (0.7) and the “nose-family symptom score, Fitzmaurice model, Camostat” value ([1]; day 6) was 3.9 (0.6). For the same compound, the “nose-family symptom score, Fitzmaurice model, Effect (placebo vs camostat)” value ([1]; day 6) was 1.4 (0.7), the “nose-family symptom score, Fitzmaurice model, Camostat” value ([1]; day 7) was 3.6 (0.6) and the “nose-family symptom score, Fitzmaurice model, Effect (placebo vs camostat)” value ([1]; day 7) was 1.2 (0.7). The “nose-family symptom score, Fitzmaurice model, Camostat” value ([1]; day 8) was 3.3 (0.6), the “nose-family symptom score, Fitzmaurice model, Effect (placebo vs camostat)” value ([1]; day 8) was 1.5 (0.7) and the “nose-family symptom score, Fitzmaurice model, Camostat” value ([1]; day 9) was 2.9 (0.6). The “nose-family symptom score, Fitzmaurice model, Effect (placebo vs camostat)” value ([1]; day 9) was 1.3 (0.7), the “nose-family symptom score, Fitzmaurice model, Camostat” value ([1]; day 10) was 2.9 (0.6) and the “nose-family symptom score, Fitzmaurice model, Effect (placebo vs camostat)” value ([1]; day 10) was 0.9 (0.7). The “nose-family symptom score, Fitzmaurice model, Camostat” value ([1]; day 11) was 3 (0.6), the “nose-family symptom score, Fitzmaurice model, Effect (placebo vs camostat)” value ([1]; day 11) was 0.4 (0.7) and the “nose-family symptom score, Fitzmaurice model, Camostat” value ([1]; day 12) was 2.5 (0.6). The “nose-family symptom score, Fitzmaurice model, Effect (placebo vs camostat)” value ([1]; day 12) was 0.7 (0.7), the “nose-family symptom score, Fitzmaurice model, Camostat” value ([1]; day 13) was 2.7 (0.6) and the “nose-family symptom score, Fitzmaurice model, Effect (placebo vs camostat)” value ([1]; day 13) was 0.1 (0.7). For the same compound, the “nose-family symptom score, Fitzmaurice model, Camostat” value ([1]; day 14) was 2.7 (0.6), the “nose-family symptom score, Fitzmaurice model, Effect (placebo vs camostat)” value ([1]; day 14) was 0.2 (0.8) and the “frequency score, Fitzmaurice mixed effects model, A: Camostat arm” value (from here on “frequency score … Camostat arm”) ([2]; day 0) was 6.25 (0.47). For the same compound, the “frequency score, Fitzmaurice mixed effects model, B − A (placebo − camostat)” value (“frequency score … (placebo − camostat)” for short) ([2]; day 0) was 0, the “frequency score … Camostat arm” value ([2]; day 1) was 6.49 (0.57) and the “frequency score … (placebo − camostat)” value ([2]; day 1) was −0.05 (0.67). The “frequency score … Camostat arm” value ([2]; day 2) was 5.51 (0.59), the “frequency score … (placebo − camostat)” value ([2]; day 2) was −0.03 (0.68) and the “frequency score … Camostat arm” value ([2]; day 3) was 5.88 (0.58). The “frequency score … (placebo − camostat)” value ([2]; day 3) was −0.42 (0.67), the “frequency score … Camostat arm” value ([2]; day 4) was 5.64 (0.58) and the “frequency score … (placebo − camostat)” value ([2]; day 4) was −1.05 (0.68). For the same compound, the “frequency score … Camostat arm” value ([2]; day 5) was 5.54 (0.58), the “frequency score … (placebo − camostat)” value ([2]; day 5) was −0.96 (0.68) and the “frequency score … Camostat arm” value ([2]; day 6) was 4.75 (0.58). For the same compound, the “frequency score … (placebo − camostat)” value ([2]; day 6) was −0.41 (0.68), the “frequency score … Camostat arm” value ([2]; day 7) was 4.62 (0.59) and the “frequency score … (placebo − camostat)” value ([2]; day 7) was −0.51 (0.68). The “frequency score … Camostat arm” value ([2]; day 8) was 4.39 (0.6), the “frequency score … (placebo − camostat)” value ([2]; day 8) was −0.9 (0.7) and the “frequency score … Camostat arm” value ([2]; day 9) was 3.98 (0.59). The “frequency score … (placebo − camostat)” value ([2]; day 9) was −0.54 (0.69), the “frequency score … Camostat arm” value ([2]; day 10) was 3.96 (0.6) and the “frequency score … (placebo − camostat)” value ([2]; day 10) was −0.98 (0.69). The “frequency score … Camostat arm” value ([2]; day 11) was 3.8 (0.6), the “frequency score … (placebo − camostat)” value ([2]; day 11) was −0.9 (0.7) and the “frequency score … Camostat arm” value ([2]; day 12) was 2.75 (0.6). For the same compound, the “frequency score … (placebo − camostat)” value ([2]; day 12) was −0.28 (0.7), the “frequency score … Camostat arm” value ([2]; day 13) was 2.66 (0.62) and the “frequency score … (placebo − camostat)” value ([2]; day 13) was −0.22 (0.72). For the same compound, the “frequency score … Camostat arm” value ([2]; day 14) was 2.44 (0.61), the “frequency score … (placebo − camostat)” value ([2]; day 14) was −0.13 (0.72) and the “time required for a negative SARS-CoV-2 test (primary endpoint)” value [3] was “did not show efficacy”. For the same compound, the SARS-CoV-2 cellular entry [4] was “can be blocked”, the adverse effects [5] was “adverse effects were not observed” and the “effect on clinical severity (e.g. escalation to ICU admission)” value [5] was “did not have an observable effect”. The “smell/taste-family symptoms, Fitzmaurice mixed effects model, Camostat” value (shortened to “smell/taste-family symptoms … Camostat”) ([6]; Day 0) was 1.4 (0.2), the “smell/taste-family symptoms … Camostat” value ([6]; Day 1) was 1.4 (0.2) and the “smell/taste-family symptoms, Fitzmaurice mixed effects model, Effect” value ([6]; Day 1) was 0.5 (0.3). For the same compound, the “smell/taste-family symptoms … Camostat” value ([6]; Day 2) was 1.4 (0.2), the “smell/taste-family symptoms, Fitzmaurice mixed effects model, Effect” value ([6]; Day 2) was 0.7 (0.3) and the “smell/taste-family symptoms … Camostat” value ([6]; Day 3) was 1.3 (0.2). For the same compound, the “smell/taste-family symptoms, Fitzmaurice mixed effects model, Effect” value ([6]; Day 3) was 1 (0.3), the “smell/taste-family symptoms … Camostat” value ([6]; Day 4) was 1.2 (0.2) and the “smell/taste-family symptoms, Fitzmaurice mixed effects model, Effect” value ([6]; Day 4) was 1 (0.3). For the same compound, the “smell/taste-family symptoms … Camostat” value ([6]; Day 5) was 1.1 (0.2), the “smell/taste-family symptoms, Fitzmaurice mixed effects model, Effect” value ([6]; Day 5) was 1.2 (0.3) and the “smell/taste-family symptoms … Camostat” value ([6]; Day 6) was 1 (0.2). The “smell/taste-family symptoms, Fitzmaurice mixed effects model, Effect” value ([6]; Day 6) was 0.7 (0.3), the “smell/taste-family symptoms … Camostat” value ([6]; Day 7) was 0.8 (0.2) and the “smell/taste-family symptoms, Fitzmaurice mixed effects model, Effect” value ([6]; Day 7) was 0.7 (0.3). For the same compound, the “smell/taste-family symptoms … Camostat” value ([6]; Day 8) was 0.8 (0.2), the “smell/taste-family symptoms, Fitzmaurice mixed effects model, Effect” value ([6]; Day 8) was 0.8 (0.3) and the “smell/taste-family symptoms … Camostat” value ([6]; Day 9) was 0.9 (0.2). The “smell/taste-family symptoms, Fitzmaurice mixed effects model, Effect” value ([6]; Day 9) was 0.6 (0.3), the “smell/taste-family symptoms … Camostat” value ([6]; Day 10) was 0.9 (0.2) and the “smell/taste-family symptoms, Fitzmaurice mixed effects model, Effect” value ([6]; Day 10) was 0.5 (0.3). The “smell/taste-family symptoms … Camostat” value ([6]; Day 11) was 0.9 (0.2), the “smell/taste-family symptoms, Fitzmaurice mixed effects model, Effect” value ([6]; Day 11) was 0.3 (0.3) and the “smell/taste-family symptoms … Camostat” value ([6]; Day 12) was 0.9 (0.2). For the same compound, the “smell/taste-family symptoms, Fitzmaurice mixed effects model, Effect” value ([6]; Day 12) was 0.2 (0.3), the “smell/taste-family symptoms … Camostat” value ([6]; Day 13) was 0.7 (0.3) and the “smell/taste-family symptoms, Fitzmaurice mixed effects model, Effect” value ([6]; Day 13) was 0.4 (0.3). For the same compound, the “smell/taste-family symptoms … Camostat” value ([6]; Day 14) was 0.8 (0.3), the “smell/taste-family symptoms, Fitzmaurice mixed effects model, Effect” value ([6]; Day 14) was 0.4 (0.3) and the “eye-family symptom score, Fitzmaurice model, Camostat” value ([7]; day 0) was 1.4 (0.2). For the same compound, the “eye-family symptom score, Fitzmaurice model, Camostat” value ([7]; day 1) was 1.4 (0.2), the “eye-family symptom score, Fitzmaurice model, Effect (placebo vs camostat)” value (“eye-family symptom score … (placebo vs camostat)” below) ([7]; day 1) was −0.3 (0.3) and the “eye-family symptom score, Fitzmaurice model, Camostat” value ([7]; day 2) was 1.2 (0.2). The “eye-family symptom score … (placebo vs camostat)” value ([7]; day 2) was −0.2 (0.3), the “eye-family symptom score, Fitzmaurice model, Camostat” value ([7]; day 3) was 0.9 (0.2) and the “eye-family symptom score … (placebo vs camostat)” value ([7]; day 3) was −0.2 (0.3). For the same compound, the “eye-family symptom score, Fitzmaurice model, Camostat” value ([7]; day 4) was 0.5 (0.2), the “eye-family symptom score … (placebo vs camostat)” value ([7]; day 4) was 0.2 (0.3) and the “eye-family symptom score, Fitzmaurice model, Camostat” value ([7]; day 5) was 0.5 (0.2). The “eye-family symptom score … (placebo vs camostat)” value ([7]; day 5) was −0.2 (0.3), the “eye-family symptom score, Fitzmaurice model, Camostat” value ([7]; day 6) was 0.2 (0.2) and the “eye-family symptom score … (placebo vs camostat)” value ([7]; day 6) was 0.3 (0.3). For the same compound, the “eye-family symptom score, Fitzmaurice model, Camostat” value ([7]; day 7) was 0.2 (0.2), the “eye-family symptom score … (placebo vs camostat)” value ([7]; day 7) was 0.3 (0.3) and the “eye-family symptom score, Fitzmaurice model, Camostat” value ([7]; day 8) was 0.1 (0.2). For the same compound, the “eye-family symptom score … (placebo vs camostat)” value ([7]; day 8) was 0.5 (0.3), the “eye-family symptom score, Fitzmaurice model, Camostat” value ([7]; day 9) was 0.2 (0.2) and the “eye-family symptom score … (placebo vs camostat)” value ([7]; day 9) was 0.4 (0.3). For the same compound, the “eye-family symptom score, Fitzmaurice model, Camostat” value ([7]; day 10) was 0.2 (0.2), the “eye-family symptom score … (placebo vs camostat)” value ([7]; day 10) was 0.3 (0.3) and the “eye-family symptom score, Fitzmaurice model, Camostat” value ([7]; day 11) was 0 (0.2). For the same compound, the “eye-family symptom score … (placebo vs camostat)” value ([7]; day 11) was 0.4 (0.3), the “eye-family symptom score, Fitzmaurice model, Camostat” value ([7]; day 12) was 0 (0.2) and the “eye-family symptom score … (placebo vs camostat)” value ([7]; day 12) was 0.3 (0.3). The “eye-family symptom score, Fitzmaurice model, Camostat” value ([7]; day 13) was 0.1 (0.2), the “eye-family symptom score … (placebo vs camostat)” value ([7]; day 13) was 0.1 (0.3) and the “eye-family symptom score, Fitzmaurice model, Camostat” value ([7]; day 14) was 0.2 (0.2). For the same compound, the “eye-family symptom score … (placebo vs camostat)” value ([7]; day 14) was 0.1 (0.3).
